# Where two headings read alike, the source gives them in different places.
# Legend:
# [1] = test system: CEM cells; assay: Phospho-histone 3 (H3 pS10) staining, flow cytometry; format: cell-based, human; settings: 500 nM 3-AP, 1 µM VE-822, 1 µM dCKi, 24 h
# Description: Phospho-histone 3 staining. Cells were treated with drug combinations of three drugs. 24 h following treatment, cells were fixed and permeabilized with 1% PFA and 1X Perm/wash solution respectively.
# Following fixation and permeabilization, cells were stained intracellularly with pH3 Ser10 antibody conjugated to AF647 (Cell signaling, #12230). Cells were then washed with PBS, stained with 0.5 mL of DAPI for DNA content (1 µg/mL in 2% FBS in PBS) before data acquisition. […]
# FACS analysis. All flow cytometry data were acquired on five-laser LSRII cytometers (BD) for analysis, and analyzed using FlowJo software (Tree Star). The cell cycle durations were calculated using equations for multiple time-point measurements according to previously published methods (Terry and White, 2006).
# [2] = test system: CEM cells; assay: Apoptosis assay, Annexin V and PI staining; format: cell-based, human; settings: 500 nM 3-AP, 1 µM VE-822, 1 µM dCKi, 24 h
# Description: (§1) Apoptosis and cell death were assayed using Annexin V-FITC and PI according to manufacturer’s instructions (FITC Annexin V Apoptosis Detection Kit, BD Sciences, #556570). […]
# (§2) Annexin V staining. Cells were treated with the indicated treatments for 24 or 72 h, then collected and washed twice with 1 mL of FACS buffer (2% FBS in PBS). Induction of apoptosis and cell death were assayed by staining the cells with Annexin V-FITC and PI according to manufacturer’s instructions (FITC Annexin V Apoptosis Detection Kit, BD Sciences, #556570).
# (§3) FACS analysis. All flow cytometry data were acquired on five-laser LSRII cytometers (BD) for analysis, and analyzed using FlowJo software (Tree Star). […]
# [3] = Plasma pharmacokinetics after single dose oral co-administration; format: in vivo, C57BL/6 mice
# Description: 3-AP, dCKi, VE-822 plasma concentrations were assessed at 0.5, 1, 2, 4, 6, 12 and 24 h following oral administration. Blood samples were collected in heparin-EDTA tubes by the retro-orbital technique and spun down to collect the supernatants. Four parts of methanol were added to plasma samples to precipitate proteins, and the supernatant was collected. Twenty microliter samples were injected onto a reverse phase column equilibrated in water 0.1% formic acid for LC-MS/MS-MRM analysis in positive ion mode. Plasma concentrations were determined by comparison to previously generated standard curves. A population pharmacokinetic modeling (NONMEM v. 7.2) with first-order conditional estimation (FOCE) was used to characterize the Cmax, half-life, and area under the curve (AUC) for 3-AP, dCKi, and VE-822. 3-AP and VE-822 were best described with a one compartment model while dCKi was best described by a two-compartment model. All three drugs were well described with first order absorption and a proportional error model. Clearance and volume were scaled by weight. […]
# Plasma collection and pharmacokinetic assays. Blood was collected in heparin-EDTA tubes by retro-orbital technique at time points 0.25, 1, 6, and 24 h time points from the first set of mice and 0.5, 4, and 12 h from the second set of mice. Blood samples were spun at 2000 x g for 15 min and the plasma supernatants were collected. All plasma samples were frozen down at –20 °C before sample processing. The stock solutions of 3-AP, VE-822, DI-82, 3-AP analog (NSC 266749), VE-821 (Selleckchem), DI-39 were prepared individually by dissolving the appropriate amount of each drug in a known volume of dimethyl sulfoxide (DMSO) to a 10 mM concentration and were stored at –20 °C before use. The 3-AP analog, VE-821 and DI-39 (internal standards) were diluted to 200 nM in methanol to make the internal solution. The calibration standards were prepared by spiking working stock solutions of 3-AP, VE-822 and DI-82 in plasma from untreated mice to give 0.01-10 pmol/µL range. Each 20 µL calibration standard sample was mixed with 60 µL of internal solution (methanol with 200 nM internal standards) and vortexed for 30 s. Following centrifugation at 15,000 x g for 10 min, approximately 60 µL of sample was carefully transferred into HPLC injector vials for LC-MS/MS-MRM analysis.
# Plasma samples were processed the same way as the calibration standard samples. 20 μL samples were injected onto a reverse phase column, (Thermo Scientific Hypersil GOLD column 3.0 µm; 2.1 x 100 mm) equilibrated in water/formic acid, 100/0.1, and eluted (200 μL/min) with an increasing concentration of solvent […]
# The effluent from the column was directed to the Agilent Jet Stream ion source connected to the triple quadrupole mass spectrometer (Agilent 6460) operating in the multiple reaction monitoring (MRM) mode using previously optimized settings. The following drug precursor→fragment ion transitions were used: 3-AP
# [4] = test system: CEM cells; assay: Cell cycle analysis of asynchronous cells by flow cytometry (S-phase population, S-phase arrest); format: cell-based, human; settings: for percentage of cell population in S-phase: asynchronous CEM, 12 h, VE-822 1 µM, DI-82 1 µM
# Description: Cell cycle histograms. Cells were plated at a density of 0.5 x 10^6 cells/mL in respective media or drug treated media. Following 24 h incubation, cells were harvested and washed twice with PBS twice before staining with 0.5 ml of propidium iodide (Calbiochem, #P3566, 1 µg/mL) solution containing Ribonuclease A and 0.3% Triton-X 100. The samples were protected from light before acquisition by flow cytometry.
# Cell cycle kinetics and cell cycle progression by intracellular detection of DNA-incorporated 5-ethynyl-2-deoxyuridine (EdU). CEM T-ALL cells were plated at a density of 0.5 x 10^6 cells/mL. Cells were pulsed with 10 µM EdU (Invitrogen) for 1 h, washed twice with PBS, and released in fresh media containing 5 µM deoxyribonucleosides, with and without drugs. Cells were collected at different time points following release in fresh media, and then fixed with 4% paraformaldehyde and permeabilized using saponin perm/wash reagent (Invitrogen). Cells were then stained with azide-Alexa Fluor 647 by Click reaction according to manufacturer’s protocol (Invitrogen; Click-iT EdU Flow cytometry kit, #C10634). […]
# [5] = test system: dasatinib-resistant p185BCR-ABL Arf–/– pre-B-ALL cells; assay: Apoptosis assay, Annexin V and PI staining; format: cell-based, mouse; settings: 350 nM 3-AP, 100 nM VE-822, 1 µM dCKi, 72 h
# Description: as §1, §2, §3
# [6] = 3-AP 15, VE-822 40, dCKi 50 mg kg−1
# [7] = cells harvested from bone marrow of a treated leukemic mouse
# [8] = cells prior to inoculation in mice
# [9] = C57BL/6, mouse, 40 mg/kg, 3-AP 15, VE-822 40, dCKi 50 mg kg−1
"AUC [3, 6]","Cmax [3, 6]","t1/2 [3, 6]",Structure (SMILES),"H3 pS10 plot, upper percentage (gate not given) [1]",Annexin V+ cells (apoptosis induction) [2],"concentration inducing S-phase arrest ([4]; CEM, 24 h)","Annexin V+ cells (apoptosis induction) [5, 7]","Annexin V+ cells (apoptosis induction) [5, 8]","Cmax [3, 9]","half-life [3, 9]","AUC ([3]; C57BL/6, mouse, 40 mg/kg, 3-AP 15, VE-822 40, dCKi 50 mg kg−1, read-out: AUC)",percentage of cell population in S-phase ([4]; + dNTP (10 µM)),percentage of cell population in S-phase ([4]; – dNTP)
9.2 ± 1.8 µM·h,2300 ± 700 nM,3.3 ± 1.0 h,NC(=S)N/N=C/c1ncccc1N [3-AP],1.8%,31.0%,0.5 µM,22.0%,32.6%,,,,,
,,,CNCc1ccc(-c2cc(-c3nc(-c4ccc(S(=O)(=O)C(C)C)cc4)cnc3N)on2)cc1 [VE-822],6.5%,10.3%,,12.9%,20.7%,1800 ± 200 nM,17 ± 1 h,55 ± 2 µM·h,37%,42%
63 ± 4 µM·h,6400 ± 700 nM,8.5 ± 3.0 h,COc1ccc(-c2nc([C@@H](C)Sc3nc(N)cc(N)n3)c(C)s2)cc1OCCNS(C)(=O)=O [dCKi],2.4%,11.1%,,11.0%,20.4%,,,,31%,30%

# — paper PMC5556071, “ATR inhibition facilitates targeting of leukemia dependence on convergent nucleotide biosynthetic pathways” (Nature Communications, 2017)
